Patent US8008232B2, “Pyrazolecarboxanilides, process for their preparation and compositions comprising them for controlling harmful fungi” (BASF Aktiengesellschaft, priority 2005, dated 2011)

Test system: Botrytis cinerea
Experiment: Activity against gray mold on bell pepper leaves caused by Botrytis cinerea, protective application (also comparative experiment)
Type: in vivo
Conditions: 5 days, untreated 90
Protocol: The active compounds were prepared as a stock solution comprising 25 mg of active compound which was made up to 10 ml using a mixture of acetone and/or dimethyl sulfoxide and the emulsifier Uniperol® EL (wetting agent having an emulsifying and dispersing action based on ethoxylated alkylphenols) in a volume ratio of solvent/emulsifier of 99:1. The mixture was then made up to 100 ml with water. This stock solution was diluted with the solvent/emulsifier/water mixture described to give the desired concentration of active compounds.
Activity Against Gray Mold on Bell Pepper Leaves Caused by Botrytis cinerea, Protective Application
Bell pepper seedlings of the cultivar “Neusiedler Ideal Elite” were, after 2-3 leaves were well developed, sprayed to runoff point with an aqueous suspension having the concentration of active compounds stated below. The next day, the treated plants were inoculated with a spore suspension of Botrytis cinerea which comprised 1.7×10^6 spores/ml in a 2% strength aqueous biomalt solution. The test plants were then placed into a dark climatized chamber at 22-24° C. and high atmospheric humidity. After 5 days, the extent of the fungal infection on the leaves could be determined visually in %.
Comparative Experiment—Activity Against Gray Mold on Bell Pepper Leaves Caused by Botrytis cinerea, Protective Application
Compound No. 47 of Table 1 from EP-A 0 589 301 was compared to compounds 9.17 and 9.20 according to the invention from Table 9.

Row | Compound | Infection in % at 250 ppm at BOTRCI P1 [%]
1 | Cc1nn(C)cc1C(=O)Nc1ccccc1-c1ccc(F)cc1 [Comp. 47, reference compound] | 60
2 | Cc1nn(C)cc1C(=O)Nc1ccccc1-c1ccc(F)c(Cl)c1 [9.17] | 5
3 | Cc1nn(C)cc1C(=O)Nc1ccccc1-c1ccc(F)cc1F [9.20] | 7
